# Columns and labels:
# [1] = Solubility in PBS at pH 7.4; type: physicochemical
# [2] = target: T1, RARγ (Homo sapiens, UniProt P13631); experiment: Transactivation (luciferase) antagonist assay, RARγ; type: cell-based; settings: vs EC80 (8 nM) ATRA, luciferase readout; read-out: RARγ Antagonism IC50
# T1 construct: host or cells: unnamed reporter cells
# T1 sequence (P13631 1-454): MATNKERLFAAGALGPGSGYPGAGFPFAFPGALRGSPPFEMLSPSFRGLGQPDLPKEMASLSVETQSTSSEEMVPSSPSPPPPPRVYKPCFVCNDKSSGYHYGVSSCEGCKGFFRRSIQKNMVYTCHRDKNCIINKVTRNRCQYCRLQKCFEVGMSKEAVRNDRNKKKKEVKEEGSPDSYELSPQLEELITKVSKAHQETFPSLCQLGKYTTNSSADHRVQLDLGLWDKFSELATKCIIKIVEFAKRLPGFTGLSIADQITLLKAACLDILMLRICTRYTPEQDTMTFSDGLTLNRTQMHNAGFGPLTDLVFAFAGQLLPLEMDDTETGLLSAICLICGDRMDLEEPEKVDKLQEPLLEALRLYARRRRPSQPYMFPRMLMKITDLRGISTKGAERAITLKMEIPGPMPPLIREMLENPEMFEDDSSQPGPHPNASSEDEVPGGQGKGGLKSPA
# Experimental: (§1) Control wells containing cells without added agonist defined the background signal values. […] Cell suspension (30 μL) was added to each well and the assay plate was incubated overnight in a 5% CO2 incubator at 37° C. Luciferase detection reagent (15 μL) was then added and the plate was incubated at RT for 30 minutes. Luminescence was quantified using an EnSpire plate reader (PerkinElmer, Waltham, MA). IC50 values were determined by fitting dose response data using the four-parameter logistic equation in GraphPad Prism 7.0.
# [3] = target: T2, RARα (Homo sapiens, UniProt P10276); experiment: Transactivation (luciferase) antagonist assay, RARα; type: cell-based; settings: vs EC80 (180 nM) 9-cis-RA, luciferase readout; read-out: RARα Antagonism IC50
# T2 construct: host or cells: unnamed reporter cells
# T2 sequence (P10276 1-462): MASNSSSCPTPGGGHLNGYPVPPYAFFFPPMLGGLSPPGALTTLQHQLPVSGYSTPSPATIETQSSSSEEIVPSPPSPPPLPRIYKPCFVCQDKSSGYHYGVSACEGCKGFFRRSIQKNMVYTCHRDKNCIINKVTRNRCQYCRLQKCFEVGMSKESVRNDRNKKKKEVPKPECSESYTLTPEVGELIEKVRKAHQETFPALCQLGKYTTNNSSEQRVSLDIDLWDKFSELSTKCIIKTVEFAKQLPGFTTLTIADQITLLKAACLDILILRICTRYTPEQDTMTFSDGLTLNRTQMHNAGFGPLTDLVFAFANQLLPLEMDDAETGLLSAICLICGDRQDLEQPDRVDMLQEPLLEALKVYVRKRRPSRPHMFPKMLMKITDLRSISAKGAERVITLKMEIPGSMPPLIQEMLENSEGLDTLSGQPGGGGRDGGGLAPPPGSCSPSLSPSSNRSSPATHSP
# Experimental: as §1
# [4] = target: T3, RARβ (Homo sapiens, UniProt P10826); experiment: Transactivation (luciferase) antagonist assay, RARβ; type: cell-based; settings: vs EC80 (8 nM) ATRA, luciferase readout; read-out: RARβ Antagonism IC50
# T3 construct: host or cells: unnamed reporter cells
# T3 sequence (P10826 1-455): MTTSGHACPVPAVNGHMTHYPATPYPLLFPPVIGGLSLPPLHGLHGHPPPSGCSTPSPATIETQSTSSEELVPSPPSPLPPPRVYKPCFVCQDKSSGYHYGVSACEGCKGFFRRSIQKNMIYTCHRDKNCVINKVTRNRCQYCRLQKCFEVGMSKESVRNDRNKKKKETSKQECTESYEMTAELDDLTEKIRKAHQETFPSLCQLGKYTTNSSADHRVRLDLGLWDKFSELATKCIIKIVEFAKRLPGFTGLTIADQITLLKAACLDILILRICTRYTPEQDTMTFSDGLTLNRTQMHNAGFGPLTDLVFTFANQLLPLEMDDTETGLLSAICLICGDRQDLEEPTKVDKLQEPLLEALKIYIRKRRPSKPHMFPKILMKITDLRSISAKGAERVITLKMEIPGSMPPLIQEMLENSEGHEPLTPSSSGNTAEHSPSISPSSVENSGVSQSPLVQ
# Experimental: as §1
IC50 [2] [µM],IC50 [3] [µM],IC50 [4] [µM],SMILES,solubility [1] [µM]
,0.1,,Cc1ccc(C2=CC(C)(C)Oc3ccc(-c4ccc(-c5ccc(C(=O)O)c(F)c5)[nH]4)cc32)cc1,
> 3,0.087,> 3,Cc1ccc(C2=CC(C)(C)Oc3ccc(-c4ccc(-c5ccc(C(=O)O)c(C)c5)[nH]4)cc32)cc1,
> 3.3,0.015,> 3.3,CC1(C)C=C(c2ccccc2)c2cc(-c3ccc(-c4ccc(C(=O)O)cc4)[nH]3)ccc2O1,

# Further lines, the molecule ahead of its results:
SMILES,IC50 [2] [µM],IC50 [3] [µM],IC50 [4] [µM],solubility [1] [µM]
"CC(=O)[C@H]1CC[C@H]2[C@@H]3CCC4=CC(=O)CC[C@]4(C)[C@H]3CC[C@]12C [Progesterone, reference compound]",,,,14.02
Cc1ccc(C2=CC(C)(C)Oc3ccc(-c4ccc(-c5ccc(C(=O)O)c(O)c5)[nH]4)cc32)cc1,> 3,0.094,> 3,
Cc1ccc(C2=CC(C)(C)Oc3ccc(-c4ccc(-c5cc(F)c(C(=O)O)c(F)c5)[nH]4)cc32)cc1,,0.47,,
COc1cc2c(cc1-c1ccc(-c3ccc(C(=O)O)cc3)[nH]1)C(c1ccc(C)cc1)=CC(C)(C)O2,,2,,

# Source: US20250276962A1, “CONTRACEPTIVE COMPOUNDS AND METHODS” (Regents of the University of Minnesota, priority 2021, published 2025)
